Results: patent US12350270B2, “Antimalarial agents” (Merck Sharp & Dohme LLC, priority 2019, dated 2025)

System: parasites (ring stage, in human red blood cell culture)
Experiment: Parasite LDH growth assay (antiparasite potency, Parasite Assay)
Assay type: cell-based, Plasmodium falciparum
Settings: 0.7% rings, 2% haematocrit, 72 hours at 37° C., LDH readout of parasite growth
In short: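 Growth was read by an LDH assay after a freeze–thaw cycle (−80 °C overnight, 4 h thaw at RT). Before that, parasites grew with compound for 72 h at 37 °C under gassed, humidified conditions. The input was a ring-stage culture adjusted to 0.7% parasitemia and 2% haematocrit in serum (5%)/albumax (0.5%)-supplemented RPMI-Hepes.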

SMILES	EC50
CC1(C)CC(=O)N([C@@H]2CCOc3ccc(C(=O)N[C@H]4CC(C)(C)Oc5ccccc54)cc32)C(=N)N1 [Example 106, (4R)-N-[(4S)-2,2-dimethylchroman-4-yl]-4-(2-imino-4,4-dimethyl-6-oxo-hexahydropyrimidin-1-yl)chromane-6-carboxamide]	6.6 nM

Same assay, conditions: Plasmodium falciparum, Erythrocyte, 72 h, 0.7% rings, 2% haematocrit, 72 hours at 37° C., LDH readout of parasite growth

SMILES	EC50
CC[C@]1(C)CC(=O)N([C@@H]2C[C@@H](C)c3ccc(C(=O)N[C@@H]4c5ccccc5C[C@H]4O)cc32)C(=N)N1 [Example 88, (1R,3R)-3-[(4R)-4-ethyl-2-imino-4-methyl-6-oxo-hexahydropyrimidin-1-yl]-N-[(1R,2R)-2-hydroxyindan-1-yl]-1-methyl-indane-5-carboxamide]	3.4 nM
C[C@@H]1C[C@@H](N2C(=N)NC(C)(C)CC2=O)c2cc(C(=O)N[C@@H]3c4ccccc4C[C@@]3(C)O)ccc21 [Example 89, (1R,3R)-N-[(1R,2R)-2-hydroxy-2-methyl-indan-1-yl]-3-(2-imino-4,4-dimethyl-6-oxo-hexahydropyrimidin-1-yl)-1-methyl-indane-5-carboxamide]	43.5 nM
C[C@@H]1C[C@@H](N2C(=N)NC(C)(C)CC2=O)c2cc(C(=O)N[C@@H]3c4ccccc4C[C@]3(C)O)ccc21 [Example 90, (1R,3R)-N-[(1R,2S)-2-hydroxy-2-methyl-indan-1-yl]-3-(2-imino-4,4-dimethyl-6-oxo-hexahydropyrimidin-1-yl)-1-methyl-indane-5-carboxamide]	26.8 nM
CC1(C)CC(=O)N(C2c3cc(C(=O)N[C@@H]4c5ccccc5C[C@H]4O)ccc3OC2(C)C)C(=N)N1 (stereo partly drawn) [Example 91, N-[(1R,2R)-2-hydroxyindan-1-yl]-3-(2-imino-4,4-dimethyl-6-oxo-hexahydropyrimidin-1-yl)-2,2-dimethyl-3H-benzofuran-5-carboxamide]	45.2 nM
CCC1(CC)CC(=O)N([C@@H]2CCOc3ccc(C(=O)N[C@@H](CO)c4ccccc4)cc32)C(=N)N1 [Example 92, (4R)-4-(4,4-diethyl-2-imino-6-oxo-hexahydropyimidin-1-yl)-N-[(1R)-2-hydroxy-1-phenyl-ethyl]chromane-6-carboxamide]	97.2 nM
CC1(C)CC(=O)N(C2CC(C)(C)c3ccc(C(=O)N[C@@H]4c5ccccc5C[C@@]4(C)O)cc32)C(=N)N1 (stereo partly drawn) [Example 93, N-[(1R,2R)-2-hydroxy-2-methyl-indan-1-yl]-3-(2-imino-4,4-dimethyl-6-oxo-hexahydropyrimidin-1-yl)-1,1-dimethyl-indane-5-carboxamide]	190 nM
CCC1(CC)CC(=O)N([C@@H]2CCCc3ccc(C(=O)N[C@@H]4c5ccccc5C[C@H]4O)cc32)C(=N)N1 [Example 94, (4R)-4-(4,4-diethyl-2-imino-6-oxo-hexahydropyrimidin-1-yl)-N-[(1R,2R)-2-hydroxyindan-1-yl]tetralin-6-carboxamide]	1.9 nM
CC[C@]1(C)CC(=O)N([C@@H]2C[C@@H](C)c3ccc(C(=O)N[C@@H]4c5ccccc5C[C@@]4(C)O)cc32)C(=N)N1 [Example 95, (1R,3R)-3-[(4R)-4-ethyl-2-imino-4-methyl-6-oxo-hexahydropyrimidin-1-yl]-N-[(1R,2R)-2-hydroxy-2-methyl-indan-1-yl]-1-methyl-indane-5-carboxamide]	8.8 nM
CC[C@]1(C)CC(=O)N([C@@H]2C[C@@H](C)c3ccc(C(=O)N[C@@H]4c5ccccc5C[C@]4(C)O)cc32)C(=N)N1 [Example 96, (1R,3R)-3-[(4R)-4-ethyl-2-imino-4-methyl-6-oxo-hexahydropyrimidin-1-yl]-N-[(1R,2S)-2-hydroxy-2-methyl-indan-1-yl]-1-methyl-indane-5-carboxamide]	6.5 nM
CCC1(CC)CC(=O)N([C@@H]2CCOc3ccc(C(=O)N[C@@H]4c5ccccc5C[C@H]4N)cc32)C(=N)N1 [Example 97, (4R)-N-[(1R,2R)-2-aminoindan-1-yl]-4-(4,4-diethyl-2-imino-6-oxo-hexahydropyrimidin-1-yl)chromane-6-carboxamide]	19 nM
CC1(C)CC(=O)N([C@@H]2CCc3ccc(C(=O)N[C@@H]4c5ccccc5OC(C)(C)[C@H]4O)cc32)C(=N)N1 [Example 98, (3R)-N-[(3S,4R)-3-hydroxy-2,2-dimethyl-chroman-4-yl]-3-(2-imino-4,4-dimethyl-6-oxo-hexahydropyrimidin-1-yl)indane-5-carboxamide]	1.5 nM
CC[C@]1(C)CC(=O)N([C@@H]2CCc3ccc(C(=O)N[C@@H]4c5ccccc5OC[C@]4(C)O)cc32)C(=N)N1 [Example 99, (3R)-3-[(4R)-4-ethyl-2-imino-4-methyl-6-oxo-hexahydropyrimidin-1-yl]-N-[(3R,4R)-3-hydroxy-3-methyl-chroman-4-yl]indane-5-carboxamide]	4.2 nM
CC[C@]1(C)CC(=O)N([C@@H]2CCc3ccc(C(=O)N[C@@H]4c5ccccc5OC[C@@]4(C)O)cc32)C(=N)N1 [Example 100, (3R)-3-[(4R)-4-ethyl-2-imino-4-methyl-6-oxo-hexahydropyrimidin-1-yl]-N-[(3S,4R)-3-hydroxy-3-methyl-chroman-4-yl]indane-5-carboxamide]	5.3 nM
CC1(C)CC(=O)N(C2CC(C)(C)c3ccc(C(=O)N[C@@H]4c5ccccc5OC[C@H]4O)cc32)C(=N)N1 (stereo partly drawn) [Example 101, N-[(3S,4R)-3-hydroxychroman-4-yl]-3-(2-imino-4,4-dimethyl-6-oxo-hexahydropyrimidin-1-yl)-1,1-dimethyl-indane-5-carboxamide]	46.7 nM
CC[C@]1(C)CC(=O)N([C@@H]2C[C@@H](C)Oc3ccc(C(=O)N[C@@H]4c5ccccc5C[C@H]4O)cc32)C(=N)N1 [Example 102, (2R,4R)-4-[(4R)-4-ethyl-2-imino-4-methyl-6-oxo-hexahydropyrimidin-1-yl]-N-[(1R,2R)-2-hydroxyindan-1-yl]-2-methyl-chromane-6-carboxamide]	14 nM
C[C@@H]1C[C@@H](N2C(=N)NC(C)(C)CC2=O)c2cc(C(=O)N[C@@H]3c4ccccc4OC[C@]3(C)O)ccc21 [Example 103, (1R,3R)-N-[(3R,4R)-3-hydroxy-3-methyl-chroman-4-yl]-3-(2-imino-4,4-dimethyl-6-oxo-hexahydropyrimidin-1-yl)-1-methyl-indane-5-carboxamide]	6.1 nM
C[C@@H]1C[C@@H](N2C(=N)NC(C)(C)CC2=O)c2cc(C(=O)N[C@@H]3c4ccccc4OC[C@@]3(C)O)ccc21 [Example 104, (1R,3R)-N-[(3S,4R)-3-hydroxy-3-methyl-chroman-4-yl]-3-(2-imino-4,4-dimethyl-6-oxo-hexahydropyrimidin-1-yl)-1-methyl-indane-5-carboxamide]	5 nM
CCC1(CC)CC(=O)N(C2Cc3ccc(C(=O)N[C@@H]4c5ccccc5OC[C@@]4(C)O)cc32)C(=N)N1 (stereo partly drawn) [Example 105, 8-(4,4-diethyl-2-imino-6-oxo-hexahydropyrimidin-1-yl)-N-[(3S,4R)-3-hydroxy-3-methyl-chroman-4-yl]bicyclo[4.2.0]octa-1(6),2,4-triene-3-carboxamide]	8.8 nM
CC1(C)CC(=O)N(C2c3cc(C(=O)N[C@@H]4c5ccccc5C[C@@]4(C)O)ccc3OC2(C)C)C(=N)N1 (stereo partly drawn) [Example 107, N-[(1R,2R)-2-hydroxy-2-methyl-indan-1-yl]-3-(2-imino-4,4-dimethyl-6-oxo-hexahydropyrimidin-1-yl)-2,2-dimethyl-3H-benzofuran-5-carboxamide]	222 nM
